A short description of data set [1]: Apparent hydrolysis of hippuryl-L-histidyl-L-leucine in NaOH. In kind it is physicochemical. The settings on record: 30 minutes between NaOH addition and fluorescence development. The procedure: Ten μl of serum was added to 240 μl of substrate-buffer solution at 37° C. in a 12 × 75 mm test tube tightly covered with Parafilm, mixed with a vortex mixer and incubated for 15 minutes at 37° C. Duplicate reaction mixtures were stopped by addition of 1.45 ml of 0.28 M NaOH and mixing with a vortex mixer. A substrate-buffer blank was similarly treated at the same time except that enzyme was added immediately after NaOH, and was an important control for the slow breakdown of hippuryl-L-histidine-L-leucine in NaOH. In order to keep the blank low, the development of fluorescence should be started as soon as possible after the addition of NaOH.
When large quantities of enzyme were used, this effect was small compared to the total fluorescence developed. However, the increase in fluorescence intensity of the blank in 30 minutes was equivalent to 1.3 nmol/min/ml and would result in a value 4% below the true one for an enzyme activity of 34 nmol/min/ml, which is in the normal range. To avoid spuriously high blanks due to base catalyzed hydrolysis, addition of NaOH to the blank, followed by enzyme, was made at the same time that NaOH was added to terminate the enzymatic reaction of the reacted samples.

Data set [2] addresses serum angiotensin-converting enzyme (Homo sapiens, UniProt P12821). Nature of the data set: Spectrofluorimetric serum angiotensin converting enzyme assay with hippuryl-L-histidyl-L-leucine substrate. In kind it is biochemical. To be noted: FIG. 2. The procedure:
Substrate-buffer solution was prepared by mixing buffer, substrate and water at a ratio of 1:1:2.8 (final concentration in the assay mixture; 0.1M K phosphate, pH 8.3, 0.3M NaCl; 5mM hippuryl-L-histidyl-L-leucine).
Ten μl of serum was added to 240 μl of substrate-buffer solution at 37° C. in a 12 × 75 mm test tube tightly covered with Parafilm, mixed with a vortex mixer and incubated for 15 minutes at 37° C. Duplicate reaction mixtures were stopped by addition of 1.45 ml of 0.28 M NaOH and mixing with a vortex mixer. […] In order to keep the blank low, the development of fluorescence should be started as soon as possible after the addition of NaOH.
One hundred μl of o-phthaldialdehyde reagent was added to each tube which was mixed with a vortex mixer. […] The fluorescence was read in a 1 cm rectangular fluorescence cuvette in a Perkin-Elmer MPF-4 fluorimeter with 8 mm entrance and exit slits and a 7.5 V energy output between 30 and 90 minutes after addition of HCl, during which time it was stable. The excitation wavelength was 360 nm and the emission fluorescence wavelength was 500 nm.
Enzyme activity in nmoles L-histidyl-L-leucine/min/ml serum was calculated by two methods. The first is applicable for ratios of up to 2 of corrected assay/standard fluorescence. […]

Data set [3] concerns angiotensin converting enzyme of rabbit lung. To be noted: rabbit lung enzyme system; Cushman and Cheung 1971; cited from earlier work.
Data set [4] relates to L-histidyl-L-leucine peptidase. Nature of the data set: Hydrolysis of L-histidyl-L-leucine by human serum peptidase, fluorimetric. In kind it is biochemical. To be noted: estimated from 1/v-1/S plots. The procedure: Hydrolysis of the product L-histidyl-L-leucine was determined fluorimetrically by adding L-histidyl-L-leucine to an assay mixture which contained buffer and serum and was handled as described for the enzyme assays, including a zero time control. Hydrolysis was accompanied by a decrease in fluorescence from that obtained with the initial concentration as determined in the zero time control. The quantity hydrolyzed was determined by multiplying the fraction hydrolyzed (decrease in FI/initial FI) by the initial concentration. No correction was made for the fluorescence of L-histidine since it was only about 8% of the fluorescence of L-histidyl-L-leucine.
The activity of the L-histidyl-L-leucine hydrolyzing activity was measured in several sera under the conditions of the orginal assay (50 μl sera in 125 μl 0.1 M K phosphate-0.3 M NaCl, pH 8.3) using as substrate 0.2 mM L-histidyl-L-leucine, a concentration typically formed in the angiotensin converting enzyme reaction mixture. […] The velocity of the L-histidyl-L-leucine peptidase reaction was determined at varying L-histidyl-L-leucine concentrations. The Km for L-histidyl-L-leucine of the peptidase was estimated from l/.nu.-l/S plots, see Lineweaver, H. and Burk, D. (1934). J. Amer. Chem. Soc. 56, 658, to be 0.16 mM. […]

For data set [5], the system named is porcine lung L-histidyl-L-leucine peptidase. To be noted: Lee, Larue and Wilson 1971; cited from earlier work.
For data set [6], the system named is serum angiotensin converting enzyme. Nature of the data set: Serum angiotensin converting enzyme assay with angiotensin I as substrate. In kind it is biochemical, human. The procedure: Three mg of angiotensin I were dissolved in 10 ml buffer, 0.03125 M NaCl and 0.104 M potassium phosphate, pH 7.5. The optical density (O.D.) of the solution at 275 nM was measured against the buffer. The O.D. of the angiotensin I solution was adjusted to 0.272 by either adding more buffer or solid angiotensin I. Based on a mMolar extintion coefficient of 1.31 at 275 nM, the final concentration in the assay was 0.2 mM angiotensin I which is about 4-5 times the Km of this enzyme previously measured. Two hundred forty μl of the angiotensin I solution were added to each tube, then warmed to 37° C. […] of serum were added to each tube, sealed and incubated for 1 hour. […]
For fluorescence development, 100 μl of 2% o-phthaldialdehyde in methanol were added to each tube and mixed with a vortex mixer. […] The fluorescence was read in a 1 cm rectangular fluorescence cuvette in a Perkin-Elmer MPF-4 fluorimeter with a 4 mm entrance and 8 mm exit slit and a 7.5 V energy output between 30-90 minutes after the addition of HCl, during which time the fluorescence was stable. The excitation wavelength was […] and the emission fluorescence wavelength was […].
Calculation of enzymatic activity in nmoles L-histidyl-L-leucine released/min/ml of serum was calculated as follows: Angiotensin converting enzyme activity, nmole his-leu released/min/ml serum = [formula]

Where a SMILES comes first, the peptide text is derived from it. The star is where a group is joined. Bz = O=C(c1ccccc1)*

Sequence of serum angiotensin-converting enzyme (P12821 30-1232): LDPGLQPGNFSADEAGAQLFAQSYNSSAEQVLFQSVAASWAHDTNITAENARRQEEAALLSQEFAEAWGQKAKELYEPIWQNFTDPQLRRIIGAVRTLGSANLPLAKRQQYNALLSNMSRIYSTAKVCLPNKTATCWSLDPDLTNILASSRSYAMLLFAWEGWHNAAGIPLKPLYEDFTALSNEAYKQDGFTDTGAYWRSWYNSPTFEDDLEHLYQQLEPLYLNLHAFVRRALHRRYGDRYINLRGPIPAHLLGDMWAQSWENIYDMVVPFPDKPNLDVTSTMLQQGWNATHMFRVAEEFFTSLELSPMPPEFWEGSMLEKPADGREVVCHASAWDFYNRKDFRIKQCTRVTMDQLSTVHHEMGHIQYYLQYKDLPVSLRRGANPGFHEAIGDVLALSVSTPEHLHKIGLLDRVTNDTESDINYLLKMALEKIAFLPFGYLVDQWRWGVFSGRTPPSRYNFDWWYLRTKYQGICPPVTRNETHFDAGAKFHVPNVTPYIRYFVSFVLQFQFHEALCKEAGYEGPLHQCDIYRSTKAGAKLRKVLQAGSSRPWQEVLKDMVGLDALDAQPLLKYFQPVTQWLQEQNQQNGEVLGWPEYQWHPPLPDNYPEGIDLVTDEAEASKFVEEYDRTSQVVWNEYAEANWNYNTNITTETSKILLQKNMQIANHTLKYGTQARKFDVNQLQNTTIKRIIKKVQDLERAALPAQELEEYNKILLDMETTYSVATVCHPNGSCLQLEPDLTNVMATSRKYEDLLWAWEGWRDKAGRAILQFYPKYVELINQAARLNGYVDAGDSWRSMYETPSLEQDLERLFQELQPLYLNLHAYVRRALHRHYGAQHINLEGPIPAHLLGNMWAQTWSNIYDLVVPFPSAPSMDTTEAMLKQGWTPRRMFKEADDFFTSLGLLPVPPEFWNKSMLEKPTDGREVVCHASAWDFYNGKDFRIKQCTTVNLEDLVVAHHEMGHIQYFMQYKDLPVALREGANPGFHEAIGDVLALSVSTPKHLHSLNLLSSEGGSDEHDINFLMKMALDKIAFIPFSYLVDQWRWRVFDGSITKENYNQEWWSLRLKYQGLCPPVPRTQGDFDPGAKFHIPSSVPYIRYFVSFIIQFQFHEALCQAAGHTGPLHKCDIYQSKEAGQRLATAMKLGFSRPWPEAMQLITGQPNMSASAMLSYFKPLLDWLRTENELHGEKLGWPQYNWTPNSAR

`CC(C)C[C@H](NC(=O)[C@H](Cc1c[nH]cn1)NC(=O)CNC(=O)c1ccccc1)C(=O)O` [hippuryl-L-histidyl-L-leucine, Hippuryl-L-histidyl-L-leucine] (Bz-Gly-His-Leu-OH): the “Increase in fluorescence intensity of the blank, as equivalent enzyme activity (base-catalyzed hydrolysis)” value in data set [1] worked out at 1.3 nmol/min/mL. Moreover, in data set [2], the “Substrate concentration at maximum activity” value is reported as 5 mM and the “Substrate concentration at which inhibition was noted” value was determined as 15 mM. For the same compound, in data set [3], the Km is 2600 µM and the “Substrate concentration above which inhibition was present” value is “above 10 mM”.
In the case of `CC(C)C[C@H](NC(=O)[C@@H](N)Cc1c[nH]cn1)C(=O)O` [L-histidyl-L-leucine] (H-His-Leu-OH), the Michaelis-Menten constant (Km) in data set [4] was 160 µM; in data set [5], 200 µM.
Take “angiotensin I (DRVYIHPFHL; Angiotensin-1; UniProt P01019 25-34, looked up) [decapeptide natural substrate of angiotensin converting enzyme]”: the “Activity as substrate compared with hippuryl-L-histidyl-L-leucine” value in data set [6] was “considerably lower”.

(Values after patent US4108726A, “Sarcoidosis test” (Research Corporation, priority 1976, dated 1978).)
